Measured values as given in the supplement of paper PMC10307832.

Legend:
Experiment in all cases: relative viability (nuclei count vs DMSO), 5 days (fraction); higher = more cells survive
HARA = test system: HARA
How it was run: (§1)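 Values are medians from duplicate plates. Each reflects relative viability, defined as the nuclei count of treated wells over that of vehicle wells. Lung cancer cell lines in 1536-well plates were pin-tool dosed one day after seeding with one drug alone or with a fixed anchor-drug dose plus five library-drug doses (not always all listed) in √10 steps, then fixed, stained and imaged at 4× after 5 days.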

NCI-H1915 = test system: NCI-H1915
How it was run: as §1

NCI-H1395 = test system: NCI-H1395
How it was run: as §1

EMC-BAC-2 = test system: EMC-BAC-2
How it was run: as §1

NCI-H1437 = test system: NCI-H1437
How it was run: as §1

NCI-H460 = test system: NCI-H460
How it was run: as §1

NCI-H522 = test system: NCI-H522
How it was run: as §1

LCLC-103H = test system: LCLC-103H
How it was run: as §1

CAL-12T = test system: CAL-12T
How it was run: as §1

NCI-H727 = test system: NCI-H727
How it was run: as §1

NCI-H23 = test system: NCI-H23
How it was run: as §1

SW 1573 = test system: SW 1573
How it was run: as §1

COR-L 105 = test system: COR-L 105
How it was run: as §1

A-427 = test system: A-427
How it was run: as §1

NCI-H2228 = test system: NCI-H2228
How it was run: as §1

NCI-H2009 = test system: NCI-H2009
How it was run: as §1

HCC-366 = test system: HCC-366
How it was run: as §1

HCC-827 = test system: HCC-827
How it was run: as §1

HOP-62 = test system: HOP-62
How it was run: as §1

NCI-H1755 = test system: NCI-H1755
How it was run: as §1

SK-LU-1 = test system: SK-LU-1
How it was run: as §1

SMILES: Cc1sc2c(c1C)C(c1ccc(Cl)cc1)=N[C@@H](CC(=O)OC(C)(C)C)c1nnc(C)n1-2 [JQ1] + O=C(CCCCCCC(=O)Nc1ccccc1)NO [Vorinostat] (partner 1 µM)
- relative viability (HARA; first compound 0.04 µM): 0.464
- relative viability (HARA; first compound 0.1265 µM): 0.514
- relative viability (HARA; first compound 0.4 µM): 0.396
- relative viability (HARA; first compound 1.265 µM): 0.347
- relative viability (HARA; first compound 4 µM): 0.301
- relative viability (NCI-H1915; first compound 0.04 µM): 0.508
- relative viability (NCI-H1915; first compound 0.4 µM): 0.519
- relative viability (NCI-H1915; first compound 1.265 µM): 0.299
- relative viability (NCI-H1915; first compound 4 µM): 0.203
- relative viability (NCI-H1395; first compound 0.04 µM): 0.662
- relative viability (NCI-H1395; first compound 0.1265 µM): 0.619
- relative viability (NCI-H1395; first compound 0.4 µM): 0.694
- relative viability (NCI-H1395; first compound 1.265 µM): 0.479
- relative viability (NCI-H1395; first compound 4 µM): 0.473
- relative viability (EMC-BAC-2; first compound 0.04 µM): 0.423
- relative viability (EMC-BAC-2; first compound 0.4 µM): 0.367
- relative viability (EMC-BAC-2; first compound 1.265 µM): 0.281
- relative viability (EMC-BAC-2; first compound 4 µM): 0.237
- relative viability (NCI-H1437; first compound 0.04 µM): 0.816
- relative viability (NCI-H1437; first compound 0.1265 µM): 0.736
- relative viability (NCI-H1437; first compound 0.4 µM): 0.686
- relative viability (NCI-H1437; first compound 1.265 µM): 0.395
- relative viability (NCI-H1437; first compound 4 µM): 0.34
- relative viability (NCI-H460; first compound 0.04 µM): 0.672
- relative viability (NCI-H460; first compound 0.1265 µM): 0.621
- relative viability (NCI-H460; first compound 0.4 µM): 0.18
- relative viability (NCI-H460; first compound 1.265 µM): 0.0632
- relative viability (NCI-H460; first compound 4 µM): 0.0462
- relative viability (NCI-H522; first compound 0.04 µM): 0.984
- relative viability (NCI-H522; first compound 0.1265 µM): 0.71
- relative viability (NCI-H522; first compound 0.4 µM): 0.737
- relative viability (NCI-H522; first compound 1.265 µM): 0.497
- relative viability (NCI-H522; first compound 4 µM): 0.368
- relative viability (LCLC-103H; first compound 0.04 µM): 0.832
- relative viability (LCLC-103H; first compound 0.1265 µM): 0.536
- relative viability (LCLC-103H; first compound 0.4 µM): 0.581
- relative viability (LCLC-103H; first compound 1.265 µM): 0.455
- relative viability (LCLC-103H; first compound 4 µM): 0.375
- relative viability (CAL-12T; first compound 0.04 µM): 0.853
- relative viability (CAL-12T; first compound 0.1265 µM): 0.838
- relative viability (CAL-12T; first compound 0.4 µM): 0.685
- relative viability (CAL-12T; first compound 1.265 µM): 0.238
- relative viability (CAL-12T; first compound 4 µM): 0.217
- relative viability (NCI-H727; first compound 0.04 µM): 1.47
- relative viability (NCI-H727; first compound 0.1265 µM): 1.14
- relative viability (NCI-H727; first compound 0.4 µM): 0.954
- relative viability (NCI-H727; first compound 1.265 µM): 1.08
- relative viability (NCI-H727; first compound 4 µM): 0.621
- relative viability (NCI-H23; first compound 0.04 µM): 0.547
- relative viability (NCI-H23; first compound 0.1265 µM): 0.586
- relative viability (NCI-H23; first compound 0.4 µM): 0.44
- relative viability (NCI-H23; first compound 1.265 µM): 0.168
- relative viability (NCI-H23; first compound 4 µM): 0.141
- relative viability (SW 1573; first compound 0.04 µM): 0.695
- relative viability (SW 1573; first compound 0.1265 µM): 0.365
- relative viability (SW 1573; first compound 0.4 µM): 0.338
- relative viability (SW 1573; first compound 1.265 µM): 0.231
- relative viability (SW 1573; first compound 4 µM): 0.238
- relative viability (COR-L 105; first compound 0.04 µM): 0.743
- relative viability (COR-L 105; first compound 0.1265 µM): 0.773
- relative viability (COR-L 105; first compound 0.4 µM): 0.621
- relative viability (COR-L 105; first compound 1.265 µM): 0.338
- relative viability (COR-L 105; first compound 4 µM): 0.338
- relative viability (A-427; first compound 0.04 µM): 0.861
- relative viability (A-427; first compound 0.1265 µM): 0.748
- relative viability (A-427; first compound 0.4 µM): 0.789
- relative viability (A-427; first compound 1.265 µM): 0.594
- relative viability (A-427; first compound 4 µM): 0.429
- relative viability (NCI-H2228; first compound 0.04 µM): 0.605
- relative viability (NCI-H2228; first compound 0.1265 µM): 0.826
- relative viability (NCI-H2228; first compound 0.4 µM): 0.377
- relative viability (NCI-H2228; first compound 1.265 µM): 0.316
- relative viability (NCI-H2228; first compound 4 µM): 0.168
- relative viability (NCI-H2009; first compound 0.04 µM): 0.701
- relative viability (NCI-H2009; first compound 0.1265 µM): 0.444
- relative viability (NCI-H2009; first compound 0.4 µM): 0.429
- relative viability (NCI-H2009; first compound 1.265 µM): 0.264
- relative viability (NCI-H2009; first compound 4 µM): 0.201
- relative viability (HCC-366; first compound 0.04 µM): 0.409
- relative viability (HCC-366; first compound 0.4 µM): 0.138
- relative viability (HCC-366; first compound 1.265 µM): 0.0461
- relative viability (HCC-366; first compound 4 µM): 0.042
- relative viability (HCC-827; first compound 0.04 µM): 0.95
- relative viability (HCC-827; first compound 0.1265 µM): 0.464
- relative viability (HCC-827; first compound 1.265 µM): 0.904
- relative viability (HOP-62; first compound 0.04 µM): 0.641
- relative viability (HOP-62; first compound 0.1265 µM): 0.553
- relative viability (HOP-62; first compound 0.4 µM): 0.305
- relative viability (HOP-62; first compound 1.265 µM): 0.12
- relative viability (HOP-62; first compound 4 µM): 0.0858
- relative viability (NCI-H1755; first compound 0.04 µM): 0.822
- relative viability (NCI-H1755; first compound 0.1265 µM): 0.579
- relative viability (NCI-H1755; first compound 0.4 µM): 0.693
- relative viability (NCI-H1755; first compound 1.265 µM): 0.651
- relative viability (NCI-H1755; first compound 4 µM): 0.552
- relative viability (SK-LU-1; first compound 0.04 µM): 0.797
- relative viability (SK-LU-1; first compound 0.1265 µM): 0.688
- relative viability (SK-LU-1; first compound 0.4 µM): 0.676
- relative viability (SK-LU-1; first compound 1.265 µM): 0.477
- relative viability (SK-LU-1; first compound 4 µM): 0.289
